How the values were obtained:
[1] = system: human platelet-rich plasma (PRP); experiment: In vitro agonist-induced platelet aggregation (aggregometer); type: cell-based
Procedure: Figure 3 Effects of CSL on agonist-induced platelet aggregation. Platelet-rich plasma (PRP) was preincubated for 5 min with different concentrations of CSL, Riva, or the vehicle. […] Data are shown as mean values ± SD of five independent experiments. * p < 0.05 vs. D. D = 0.2% DMSO, used as the vehicle control.
Ten fasting healthy volunteers (aged 24–28; six women and four men) who were free of allergies, cardiovascular problems, carbohydrate, or lipid metabolic abnormalities and had not taken any morning medication had their blood samples taken. None of our subjects used addictive drugs or antioxidant food supplements, and their diets were well balanced. The plasma from the blood samples was immediately spun down (1300× g for 15 min) to separate it from sodium citrate (10.9 mM) and pooled for the following investigations. Next, human blood samples were spun down at room temperature to rapidly separate the PRP. The PRP concentration was adjusted to 1 × 10^9 platelets/mL using a hemocytometer. After being rinsed once in HEPES buffer containing 1 mM CaCl2, the PRP pellet was maintained at room temperature for an additional 30 min. Then, 10 mL of the platelet samples were utilized to measure each clotting time point. The IRB of Kyungpook National University Hospital (Daegu, Republic of Korea) approved this study protocol (KNUH 2012-01-010).
CSL dissolved in DMSO was incubated with human PRP for a specified time (1, 3, 5, or 10 min). […]

Plasmin = target: T1, Plasmin (Homo sapiens, UniProt P00747); experiment: Inhibitory constant, chromogenic substrate assay; type: biochemical
T1 construct: S-2251 for plasmin; purchased Haematologic Technologies (Essex Junction, VT, USA)
Procedure: (§1) Ki values were calculated based on chromogenic substrate experiments. CSL was employed in each assay at a minimum of seven concentrations in duplicate to obtain an inhibition curve. A total of 50 μL of substrate was combined with 25 μL of each chemical solution, inhibitor solution, or blank buffer. Before the plate was allocated into the Labsystems IEMS microtiter plate reader (Cergy Pontoise, France), 25 μL of the enzyme solution was mixed. The plate was allowed for 1 h at 37 °C before analysis. We continuously observed the formation of p-nitroaniline produced when the substrate was hydrolyzed using spectrophotometry at 405 nm. The maximum initial reaction rates were computed as the millioptical density per minute. A Dixon plot of 1/Vmax versus inhibitor concentration was used to fit the curve and determine the Ki values.

Protein Ca = target: T2, Protein Ca (Homo sapiens, UniProt P04070); experiment: Inhibitory constant, chromogenic substrate assay; type: biochemical
T2 construct: purchased Haematologic Technologies (Essex Junction, VT, USA)
Procedure: as §1

tPA = target: T3, tPA (Homo sapiens, UniProt P00750); experiment: Inhibitory constant, chromogenic substrate assay; type: biochemical
T3 construct: purchased Haematologic Technologies (Essex Junction, VT, USA)
Procedure: as §1

α-Thrombin = target: T4, α-Thrombin (Homo sapiens, UniProt P00734); experiment: Inhibitory constant, chromogenic substrate assay; type: biochemical
T4 construct: α-Thrombin; purchased Haematologic Technologies (Essex Junction, VT, USA)
Procedure: as §1

[2] = system: myristoylated alanine-rich C kinase substrate (MARCKS) in human platelets; experiment: MARCKS phosphorylation (PKC activation), western blotting; type: cell-based; conditions: CSL 10 or 20 μM; ADP 10 μM or U46619 6 μM
Procedure: (§2) Figure 6 Effects of CSL on activation of protein kinase CPKC activation and mobilization of intracellular calcium. (A) Rinsed platelets were incubated with DMSO or CSL (10 or 20 μM) for 10 min at 37 °C, and stimulation of ADP (10 μM, left) or U46619 (6 μM, right) was given for 1 min. The phosphorylation level of MARCKS in the platelets was determined with western blotting. Representative images from each group are shown (n = 3). Densitometric intensities of each signaling pathway component normalized to β-actin or total protein. (B,C) Human platelets preloaded with Fura-2 were incubated with DMSO (D) or CSL with extracellular Ca^2+ (1 mM) for 10 min at 37 °C, and ADP ((B) 10 μM) or U46619 ((C) 6 μM) stimulation was given to induce an increase in [Ca^2+]i. Data are shown as mean values ± SD of five independent experiments. * p < 0.05 vs. ADP (A,B) or U46619 (A,C) alone. D = 0.2% DMSO, used as the vehicle control.
SDS-PAGE was used to isolate identical amounts of protein from the […] extracts, and the protein was then electrotransferred onto an immobilon membrane (Millipore, Billerica, MA, USA). The membranes underwent blocking, anti-phospho-MARCKS (Santa Cruz, CA, USA) incubation for 1.5 h at room temperature, HRP-conjugated secondary antibody incubation, and ECL detection. […]

human platelets = experiment: Intracellular Ca2+ mobilization (Fura-2); type: cell-based; conditions: ADP 10 μM or U46619 6 μM; extracellular Ca2+ 1 mM
Procedure: as §2
The amount of intracellular Ca^2+ ([Ca^2+]i) of platelets was measured as previously described. […] Grynkiewicz et al. proposed an equation for calculating the [Ca^2+]i by measuring the intensity of fluorescence signals (excitation/emission wavelengths: 339/500 nm) obtained from the platelets.

T2 sequence (P04070 212-450 limits assumed): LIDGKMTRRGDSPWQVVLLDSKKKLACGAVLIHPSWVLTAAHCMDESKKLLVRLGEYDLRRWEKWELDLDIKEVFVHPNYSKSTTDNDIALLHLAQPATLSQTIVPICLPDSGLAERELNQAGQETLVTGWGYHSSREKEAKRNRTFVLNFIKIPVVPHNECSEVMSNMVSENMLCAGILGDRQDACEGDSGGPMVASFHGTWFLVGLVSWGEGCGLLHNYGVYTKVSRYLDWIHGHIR
T2 sequence (P04070 43-197 partner limits assumed): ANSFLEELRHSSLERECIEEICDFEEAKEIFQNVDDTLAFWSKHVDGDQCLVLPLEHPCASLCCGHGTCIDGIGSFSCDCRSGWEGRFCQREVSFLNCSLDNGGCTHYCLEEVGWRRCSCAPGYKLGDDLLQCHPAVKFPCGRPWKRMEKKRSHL
T3 sequence (P00750 36-562): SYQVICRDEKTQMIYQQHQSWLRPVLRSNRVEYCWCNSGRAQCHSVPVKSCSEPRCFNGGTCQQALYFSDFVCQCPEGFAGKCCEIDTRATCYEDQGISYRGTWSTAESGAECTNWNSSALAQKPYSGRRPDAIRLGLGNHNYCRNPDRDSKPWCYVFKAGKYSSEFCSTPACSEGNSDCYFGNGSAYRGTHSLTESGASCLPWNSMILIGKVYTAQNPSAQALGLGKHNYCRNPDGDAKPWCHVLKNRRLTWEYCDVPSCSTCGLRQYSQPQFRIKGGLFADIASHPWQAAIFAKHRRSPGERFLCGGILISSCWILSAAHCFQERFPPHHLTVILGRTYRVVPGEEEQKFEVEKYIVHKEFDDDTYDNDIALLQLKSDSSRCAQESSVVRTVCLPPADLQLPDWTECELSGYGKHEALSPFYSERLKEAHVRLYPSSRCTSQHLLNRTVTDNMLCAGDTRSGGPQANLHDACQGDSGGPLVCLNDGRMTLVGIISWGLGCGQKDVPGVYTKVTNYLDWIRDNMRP
T1 sequence (P00747 581-810 limits assumed): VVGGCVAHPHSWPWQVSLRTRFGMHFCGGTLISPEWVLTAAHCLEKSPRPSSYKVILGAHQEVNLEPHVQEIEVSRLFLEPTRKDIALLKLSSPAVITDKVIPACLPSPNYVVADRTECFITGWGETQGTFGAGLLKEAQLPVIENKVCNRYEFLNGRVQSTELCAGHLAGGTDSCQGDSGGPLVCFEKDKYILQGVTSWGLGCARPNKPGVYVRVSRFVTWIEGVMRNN
T1 sequence (P00747 97-580 partner limits assumed): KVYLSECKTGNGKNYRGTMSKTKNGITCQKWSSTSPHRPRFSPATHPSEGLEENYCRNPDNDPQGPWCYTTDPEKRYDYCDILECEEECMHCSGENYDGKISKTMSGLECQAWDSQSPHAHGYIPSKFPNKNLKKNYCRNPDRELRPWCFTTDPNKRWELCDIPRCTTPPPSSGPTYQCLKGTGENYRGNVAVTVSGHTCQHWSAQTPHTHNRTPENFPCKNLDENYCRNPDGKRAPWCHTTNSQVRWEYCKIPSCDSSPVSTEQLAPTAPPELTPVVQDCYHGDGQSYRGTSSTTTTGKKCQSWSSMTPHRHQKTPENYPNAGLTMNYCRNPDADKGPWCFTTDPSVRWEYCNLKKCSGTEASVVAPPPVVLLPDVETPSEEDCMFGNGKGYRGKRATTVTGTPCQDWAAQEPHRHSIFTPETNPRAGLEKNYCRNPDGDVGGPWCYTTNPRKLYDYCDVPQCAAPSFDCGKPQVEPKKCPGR

## COc1cc(-c2cc(=O)c3c(O)c(OC)c(OC)cc3o2)ccc1O [CSL, 4,5-dihydroxy-3,6,7-trimethoxyflavone]
[1]; ADP 10 μM
  platelet aggregation induced by ADP: significantly suppressed
[1]; U46619 6 μM
  platelet aggregation induced by U46619: significantly suppressed
[1]; collagen 1 μg/mL
  platelet aggregation induced by collagen: significantly suppressed
Plasmin
  Ki: > 300 µM
  Ratio = Ki enzyme/Ki Factor Xa: >100
Protein Ca
  Ki: > 300 µM
  Ratio = Ki enzyme/Ki Factor Xa: >100
tPA
  Ki: > 300 µM
  Ratio = Ki enzyme/Ki Factor Xa: >100
α-Thrombin
  Ki: > 300 µM
  Ratio = Ki enzyme/Ki Factor Xa: >100
[2]
  MARCKS phosphorylation in response to ADP and U46619: prevented MARCKS from becoming phosphorylated
Human platelets
  ADP- and U46619-induced elevations in [Ca2+]i: inhibited

Source: article PMC10145360, “Antiplatelet Aggregation Properties of Cirsilineol: A Novel Inhibitor of Blood Coagulation Factor Xa” (Pharmaceuticals, 2023)
